Results reported in patent publication US12570697B2, “Cyclic peptide useful in the treatment of cancer” (Syntherix Limited, priority 2019, dated 2026).
“Also recorded” adds a separate entry of the source. Square brackets hold non-standard residues; d marks the D form. Ends that are not written are not given here. Sar = CNCC(=O)O

Assays:
[1] = test system: human non-small cell lung cancer cells (NCIH-460); experiment: killing of NCIH-460 cells by CLIPS-cyclised peptides of different warhead length (Table 1); format: cell-based
Method: The inventor undertook testing of the effect of various peptides which were cyclised using CLIPS technology on the killing of human non-small cell lung cancer cells (NCIH-460) in vitro. For each of the peptides, between two and four isomer fractions were received, giving a total of 12 peptide entities tested.
The following warhead lengths, obtained by adding flanking sarcosine residues, were tested: […]

NCI-H460 cells [2] = experiment: viability assay of CLIP cyclised peptides on NCI-H460 cells (Example 3, Table 2); format: cell-based, human; conditions: for % inhibition at 300 μM: 96 h; for cytotoxic activity against NCIH460 cells (in words): with and without Nanocin-PRO
Method: (§1) The following protocol was used: • 1) NCI-H460 cells were grown in Ham's F12 media supplemented with 10% FBS. • 2) Cells were harvested and seeded into 96-well plates at 500 cells per well. • 3) Peptides were diluted 1:2 from DMSO stock solutions to generate a 9-point dose range from a top concentration of 300 μM. Final DMSO concentration was constant at 1% (v/v). • 4) In line with the supplied Nanocin-PRO protocol, diluted peptides were incubated with Nanocin-PRO in media for 20 minutes prior to addition to cells. Nanocin-PRO was used at a final assay concentration of 0.2 μl per well. • 5) Cells were grown in the presence of peptide for 96 hours at 37° C., 5% CO2 in a humidified atmosphere. • 6) After 96 h, Alamar blue 10% (v/v) was added, incubated for a further 4 h and fluorescent product detected using a BMG FLUOstar plate reader. • 7) Media only background readings were subtracted before data was analysed using a 4-parameter logistic equation in GraphPad Prism.
Viability assays of the CLIP cyclised peptides were performed to examine the effect of four HILRa clipped peptides on the viability of NCIH460 cells (up to three isomers for each of the peptides). […] Results for HILRa 16A, 16B, 16C and HILRa 17A, 17B and 17C are depicted in FIG. 2.
Assays were performed in the presence and absence of the peptide transfection reagent Nanocin-PRO.

NCI-H460 cells [3] = experiment: NCI-H460 cell viability assay, glycosylated versus unglycosylated peptide (Example 4); format: cell-based, human; conditions: 0.2 μl Nanocin-Pro per well
Method: The inventor next undertook testing to determine whether the cytotoxicity of the peptides of the invention could be increased by glycosylation of the peptides. NCI-H460 cell viability assays were performed to compare the effect of a glycosylated clipped peptide (HILRa-Glu-01) versus the un-glycosylated version (HILRa-CL-17, HILRa-CL-17 was used in this study as a 1:1:1 mix of the three isomers HILRa-CL-17A, HILRa-CL-17B and HILRa-CL-17C).
Assays were performed in the presence and absence of the peptide transfection agent Nanocin-Pro.
as §1, with “HILRa peptides” for “Peptides”, “[…] Nanocin-Pro” for “Final DMSO concentration was constant at 1% (v/v). • 4) In line with the supplied Nanocin-PRO protocol, diluted peptides were incubated with Nanocin-PRO in media for 20 minutes prior to addition to cells. Nanocin-PRO”

[4] = test system: H460 human non-small cell lung cancer cell lines; conditions: cited from earlier work
MRC-5 cells = conditions: in vitro; WO 2016/020437; cited from earlier work
[5] = test system: RT112 bladder cancer cell line; conditions: WO 2016/020437; cited from earlier work

CC(=O)O[C@H]1C(=O)[C@@]2(C)[C@H]([C@H](OC(=O)c3ccccc3)[C@]3(O)C[C@H](OC(=O)[C@H](O)[C@@H](NC(=O)c4ccccc4)c4ccccc4)C(C)=C1C3(C)C)[C@]1(OC(C)=O)CO[C@@H]1C[C@@H]2O [Paclitaxel, reference compound]
IC50 ([1]; Homo sapiens, NCI-H460, Paclitaxel control, printed in the 0.2 μl Nanocin-PRO per well column): 0.0074 µM | IC50 (NCI-H460 cells [2]; Homo sapiens, NCI-H460, Paclitaxel control, No Nanocin-PRO column): 0.00495 µM

Ac-CDacHcaSarNapHcaNapC-NH2 [HILRa CL-16-B]
% inhibition at 300 μM (NCI-H460 cells [2]; 0.2 μl Nanocin-PRO per well): 0.0% | % inhibition at 300 μM (NCI-H460 cells [2]; No Nanocin-PRO): 14.1% | cytotoxic activity against NCIH460 cells (in words) (NCI-H460 cells [2]): completely removed the cell killing effect; also recorded: low detectable cancer cell-necrotic activity

Ac-CDacHcaSarNapHcaNapC-NH2 [HILRa CL-16-C]
% inhibition at 300 μM (NCI-H460 cells [2]; 0.2 μl Nanocin-PRO per well): 0.5% | % inhibition at 300 μM (NCI-H460 cells [2]; No Nanocin-PRO): 26.9% | cytotoxic activity against NCIH460 cells (in words) (NCI-H460 cells [2]): completely removed the cell killing effect; also recorded: low detectable cancer cell-necrotic activity

Ac-CDacHcaSarNapHcaNapC-NH2 [HILRa-CL-16]
cytotoxic activity against NCIH460 cells (in words) (NCI-H460 cells [2]): negligible activity

Ac-CDacHcaSarProHcaNapC-NH2 [HILRa CL-14-A]
% inhibition at 300 μM (NCI-H460 cells [2]; 0.2 μl Nanocin-PRO per well): 9.9% | % inhibition at 300 μM (NCI-H460 cells [2]; No Nanocin-PRO): 10.5% | cytotoxic activity against NCIH460 cells (in words) (NCI-H460 cells [2]): low detectable cancer cell-necrotic activity

Ac-CDacHcaSarProHcaNapC-NH2 [HILRa CL-14-B]
% inhibition at 300 μM (NCI-H460 cells [2]; 0.2 μl Nanocin-PRO per well): 6.8% | % inhibition at 300 μM (NCI-H460 cells [2]; No Nanocin-PRO): 5.8% | cytotoxic activity against NCIH460 cells (in words) (NCI-H460 cells [2]): low detectable cancer cell-necrotic activity

Ac-CDacHcaSarProHcaNapC-NH2 [HILRa-CL-14]
cytotoxic activity against NCIH460 cells (in words) (NCI-H460 cells [2]): negligible activity

Ac-CPKGPKPC-NH2 [HILRa-CL-10]
% inhibition at 1 mM ([1]; 0.2 μl Nanocin-PRO per well): 0.8% | % inhibition at 1 mM ([1]; No Nanocin-PRO): 2.2%

Ac-CPKGPRPC-NH2 [HILRa-CL-04]
% inhibition at 1 mM ([1]; 0.2 μl Nanocin-PRO per well): 8.5% | % inhibition at 1 mM ([1]; No Nanocin-PRO): 0.0%

Ac-CPRGPKPC-NH2 [HILRa-CL-07]
% inhibition at 1 mM ([1]; 0.2 μl Nanocin-PRO per well): 1.5% | % inhibition at 1 mM ([1]; No Nanocin-PRO): 0.0%

Ac-CPRGPRPC-NH2 [HILRa-CL-01, CLIPS-cyclised peptide]
% inhibition at 1 mM ([1]; 0.2 μl Nanocin-PRO per well): 12.9% | % inhibition at 1 mM ([1]; 0.2 μl Nanocin-PRO per well, listed as ‘clipped’ Pro-Arg-Gly-Pro-Arg-Pro warhead): over 10% | % inhibition at 1 mM ([1]; No Nanocin-PRO): 0.0%

Ac-C[Dac]R[Sar][Nap]R[Nap]C-NH2 [HILRa-CL-17]
activity in the presence of Nanocin-PRO compared to its absence (NCI-H460 cells [3]): much higher activity | cytotoxic activity against NCIH460 cells (in words) (NCI-H460 cells [2]): greater potency than HILRa-CL-15 | cytotoxic activity against NCIH460 cells (in words) (NCI-H460 cells [2]; listed as HILRa-CL17): showed activity

Ac-C[Sar]PKGPKP[Sar]C-NH2 (CXPKGPKPXC; N-acetyl; C-amide; sarcosines; HILRa-CL-11 Synthesized; Sar (2)..(2) X = Sarcosine; Sar (9)..(9) X = Sarcosine)
% inhibition at 1 mM ([1]; 0.2 μl Nanocin-PRO per well): 1.2% | % inhibition at 1 mM ([1]; No Nanocin-PRO): 0.0%

Ac-C[Sar]PKGPRP[Sar]C-NH2 (CXPKGPRPXC; N-acetyl; C-amide; sarcosines; HILRa-CL-05 Synthesized; Sar (2)..(2) X = Sarcosine; Sar (9)..(9) X = Sarcosine)
% inhibition at 1 mM ([1]; 0.2 μl Nanocin-PRO per well): 1.1% | % inhibition at 1 mM ([1]; No Nanocin-PRO): 0.0%

Ac-C[Sar]PRGPKP[Sar]C-NH2 (CXPRGPKPXC; N-acetyl; C-amide; sarcosines; HILRa-CL-08 Synthesized; Sar (2)..(2) X = Sarcosine; Sar (9)..(9) X = Sarcosine)
% inhibition at 1 mM ([1]; 0.2 μl Nanocin-PRO per well): 3.2% | % inhibition at 1 mM ([1]; No Nanocin-PRO): 0.0%

Ac-C[Sar]PRGPRP[Sar]C-NH2 (CXPRGPRPXC; N-acetyl; C-amide; sarcosines; HILRa-CL-02 Synthesized; Sar (2)..(2) X = Sarcosine; Sar (9)..(9) X = Sarcosine)
% inhibition at 1 mM ([1]; 0.2 μl Nanocin-PRO per well): 2.0% | % inhibition at 1 mM ([1]; No Nanocin-PRO): 0.0%

Ac-C[Sar][Sar]PKGPKP[Sar][Sar]C-NH2 (CXXPKGPKPXXC; N-acetyl; C-amide; sarcosines; HILRa-CL-12 Synthesized; Sar (2)..(2) X = Sarcosine; Sar (3)..(3) X = Sarcosine; Sar (10)..(10) X = Sarcosine; Sar (11)..(11) X = Sarcosine)
% inhibition at 1 mM ([1]; 0.2 μl Nanocin-PRO per well): 0.8% | % inhibition at 1 mM ([1]; No Nanocin-PRO): 0.0%

Ac-C[Sar][Sar]PKGPRP[Sar][Sar]C-NH2 (CXXPKGPRPXXC; N-acetyl; C-amide; sarcosines; HILRa-CL-06 Synthesized; Sar (2)..(2) X = Sarcosine; Sar (3)..(3) X = Sarcosine; Sar (10)..(10) X = Sarcosine; Sar (11)..(11) X = Sarcosine)
% inhibition at 1 mM ([1]; 0.2 μl Nanocin-PRO per well): 6.1% | % inhibition at 1 mM ([1]; No Nanocin-PRO): 0.0%

Ac-C[Sar][Sar]PRGPKP[Sar][Sar]C-NH2 (cysteine pairing not given here) [HILRa-CL-09]
% inhibition at 1 mM ([1]; 0.2 μl Nanocin-PRO per well): 3.0% | % inhibition at 1 mM ([1]; No Nanocin-PRO): 1.1%

Ac-C[Sar][Sar]PRGPRP[Sar][Sar]C-NH2 (CXXPRGPRPXXC; N-acetyl; C-amide; sarcosines; HILRa-CL-03 Synthesized; Sar (2)..(2) X = Sarcosine; Sar (3)..(3) X = Sarcosine; Sar (10)..(10) X = Sarcosine; Sar (11)..(11) X = Sarcosine)
% inhibition at 1 mM ([1]; 0.2 μl Nanocin-PRO per well): 9.5% | % inhibition at 1 mM ([1]; No Nanocin-PRO): 0.0%

PRGPRPVALKLALKLAL [HILR-001]
IC50 ([4]; as described in WO 2009/112536): 200 µM | killing of H460 cells versus primary diploid human fibroblasts, keratinocytes or MRC5 cells ([4]; in vitro, WO 2009/112536): selective killing

PRGPRPVWWRRWWRRWW [HILR-PRO-25]
lethality in MRC-5 cells (MRC-5 cells): without lethality | IC50 [5]: 10 µM
